Assay [1] has as its target T1, GLP-1 Receptor (Homo sapiens, UniProt P43220). The assay can be described thus: GLP-1R agonist cAMP stimulation assay, Method 2 (HDB HEK293/GLP1R/CRE-LUC, Cisbio cAMP dynamic 2 kit). The class given is cell-based. Conditions: HEK293/GLP1R/CRE-LUC cells (HD Biosciences); 30 min at 37° C.; 0.5 mM IBMX, 0.1% BSA; geometric mean where n>=2; read-out: GLP1R cAMP Stimulation DR: EC50 (nM) Method 2 (HDB). On the procedure: Method 2: Activation of GLP-1 receptor is known to stimulate cyclic AMP (cAMP) production in cells which indicates primary coupling to the Gas subunit of the G protein heterotrimeric complex.
To optimize functional activity directed toward Gas coupling, a HEK293/CRE-Luc cell line developed by HDB stably expressing the GLP-1 Receptor was used. 200× concentration of compound working solutions were prepared (Agilent Technologies Bravo) with ½log serial dilution in 384-well Echo LDV plate (Labcyte, Cat# LP-0200). […] Seal the plate and incubate at 37° C. with 5% CO2 for 30 min.
After incubation the cAMP assay signal was generated using cAMP dynamic 2 Kit (Cisbio). 5 µL cAMP-d2 working solution was added to each well, followed with 5 µL Anti-cAMP antibody-cryptate working solution added to each well using ThermoFisher Multidrop Combi. Incubate at room temperature for 1 hour protected from light.
(§1) %Activity = 100% x (mean RLU of test sample - mean RLU of vehicle control) / (mean RLU of MAX control - mean RLU of vehicle control))
(§2) This is done to account for the lognormal distribution of multiple estimates of EC50 values. In practice geometric mean is calculated by first generating log values of EC50, averaging replicates and then calculating the antilog of the average.

Assay [2] deals with T1, GLP-1 Receptor. The assay can be described thus: GLP-1R agonist cAMP stimulation assay, Method 1 (DiscoverX CHO-K1, enzyme fragment complementation). The class given is cell-based. The following applies: CHO-K1 cell line (DiscoverX) stably expressing GLP-1 Receptor; incubation 30 or 60 min at 37° C.; geometric mean where n>=2; read-out: GLP1R cAMP Stimulation DR: EC50 (nM) Method 1. The protocol: Activation of GLP-1 receptor is known to stimulate cyclic AMP (cAMP) production in cells which indicates primary coupling to the Gas subunit of the G protein heterotrimeric complex.
Method 1: To optimize functional activity directed toward Gas coupling, a CHO—K1 cell line developed by DiscoverX stably expressing the GLP-1 Receptor was used. Cells expressing GLP-1 receptor were plated in a 384-well microtiter plates and incubated overnight at 37° C. with 5% CO2 to allow the cells to attach and grow. Media was then aspirated from the cells and replaced with 15 uL 2:1 Hanks Balanced Salt Solution (HBSS)/10mM Hepes : cAMP XS+ Ab reagent. Five microliters (5 uL) of previously generated compound sample stocks at 4x final concentration in assay buffer were then added to the cells and allowed to incubate at 37° C. for 30 or 60 minutes.
After incubation the assay signal was generated using enzyme fragment complementation (EFC). In EFC, the enzyme B-galactosidase is split into two complementary portions (EA and ED). The fragment ED is fused to cAMP and in the assay format competes with endogenous cAMP for binding to a cAMP specific antibody. Activated β—Gal is formed when exogenous EA fragment binds to free ED-cAMP (not bound to cAMP specific antibody). Activated enzyme levels are detected through conversion of β-gal chemiluminescent substrate which generates a detectable luminescence signal and read on standard microtiter plate.
The methodology for detection of cAMP using EFC requires incubation with 20uL of cAMP XS+ ED/CL lysis cocktail for one hour followed by incubation with 20 uL cAMP XS+ EA reagent for three hours at room temperature. Microplates were read following signal generation with a PerkinElmer Envision instrument utilizing chemiluminescent signal detection. Compound activity was analyzed using CBIS data analysis suite (ChemInnovation, CA). Percentage activity was calculated using the following formula:
as §1, §2

Among the data in patent US20230165846A1, “HETEROCYCLIC GLP-1 AGONISTS” (Gasherbrum Bio, Inc., priority 2020, published 2023) are EC50 values, retold here.

As a reminder, the EC50 is the midpoint of the concentration-response curve.

T1 sequence (P43220 24-463): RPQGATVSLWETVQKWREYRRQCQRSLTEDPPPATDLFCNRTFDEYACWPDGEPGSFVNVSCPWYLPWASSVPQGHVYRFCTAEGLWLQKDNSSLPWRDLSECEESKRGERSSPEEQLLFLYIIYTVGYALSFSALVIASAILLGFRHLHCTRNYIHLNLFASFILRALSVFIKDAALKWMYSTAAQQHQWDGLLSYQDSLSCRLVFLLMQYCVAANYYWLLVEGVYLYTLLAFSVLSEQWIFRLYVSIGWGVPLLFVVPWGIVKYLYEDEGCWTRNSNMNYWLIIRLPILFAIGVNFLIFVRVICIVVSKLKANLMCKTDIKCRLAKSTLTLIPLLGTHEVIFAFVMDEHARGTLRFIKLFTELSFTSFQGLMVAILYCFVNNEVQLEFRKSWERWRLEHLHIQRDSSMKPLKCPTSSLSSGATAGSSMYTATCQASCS

Take `Cc1c(-c2cccc(OCc3ccc(Cl)cc3F)n2)ccn(Cc2nc3ccc(C(=O)O)nc3n2C[C@@H]2CCO2)c1=O` [Compound 105aw, (S)-2-((6-((4-chloro-2-fluorobenzyl)oxy)-3′-methyl-2′-oxo-[2,4′-bipyridin]-1′(2′H)-yl)methyl)-3-(oxetan-2-ylmethyl)-3H-imidazo[4,5-b]pyridine-5-carboxylic acid]: the EC50 at GLP-1 Receptor [1] amounted to 7.1 nM; at GLP-1 Receptor [2] it was 11 nM.
